For this assay, the target named is T1, VraS (GST-VraS) (Staphylococcus aureus, UniProt Q7A2Q0).
T1 sequence (Q7A2Q0 1-347): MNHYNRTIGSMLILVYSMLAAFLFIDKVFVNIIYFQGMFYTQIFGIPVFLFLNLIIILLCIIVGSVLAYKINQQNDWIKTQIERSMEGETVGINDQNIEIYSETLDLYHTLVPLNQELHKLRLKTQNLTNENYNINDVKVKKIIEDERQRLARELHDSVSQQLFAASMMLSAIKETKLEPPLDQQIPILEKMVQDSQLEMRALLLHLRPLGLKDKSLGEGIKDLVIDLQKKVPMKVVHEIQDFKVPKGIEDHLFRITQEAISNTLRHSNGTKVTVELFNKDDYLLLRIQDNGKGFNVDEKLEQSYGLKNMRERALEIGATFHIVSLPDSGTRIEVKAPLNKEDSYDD
Kind of assay: ATPase activity, pyruvate kinase/lactate dehydrogenase-coupled NADH fluorescence. The assay is classed as biochemical.

From doi:10.1101/2023.08.31.555806v1 (biorxiv, 2023) come the findings set out here.

`CCSc1nc2ccc(NC(=O)NC(c3cc(C)ccn3)C3CC3)cc2o1` (stereo not shown) [compound 1, 1-(cyclopropyl(4-methylpyridin-2-yl)methyl)-3-(2-(ethylthio)benzo[d]oxazol-6-yl)urea] gave an IC50 of 940 ± 290 nM.

Usually IC50 stands for the concentration needed to halve the response being measured. A higher IC50 goes with weaker potency.
